In patent US20180200257A1, “METHODS FOR THE TREATMENT OF INFLAMMATORY DISORDERS” (Galapagos NV, priority 2015, published 2018):

Test system: subjects with moderately to severely active RA who have an inadequate response to methotrexate (MTX)
Assay: Study 1 (add-on to MTX) - Aspartate Aminotransferase (AST) levels
Type: in vivo, human
Details: 24 weeks results
Procedure: Double-blind, placebo-controlled add on study in subjects with moderately to severely active RA who have an inadequate response to methotrexate (MTX) (oral or parenteral).
595 subjects randomized to one of 6 dose regimens of Compound 1 (dosed as [Compound 1:HCl:3H2O]) (3 dose levels administered either once or twice daily) or placebo on top of each subject's stable dose of MTX.
Compound 1 (dosed as [Compound 1:HCl:3H2O]) is dosed for twelve weeks once daily (q.d.) (50 mg, 100 mg or 200 mg) or twice daily (b.i.d.) (25 mg, 50 mg or 100 mg); or placebo.
At Week 12, the subjects on placebo who have not achieved 20% improvement in swollen joint count (SJC66) and tender joint count (TJC68) are re-randomized automatically to receive Compound 1 (dosed as a [Compound 1:HCl:3H2O]) either at 100 mg q.d. or 50 mg b.i.d. doses in a blinded fashion; subjects on 50 mg q.d. who have not achieved 20% improvement in SJC66 and TJC68 will be assigned to 100 mg q.d. and subjects on 25 mg b.i.d. that have not achieved a 20% improvement in SJC66 and TJC68 will be assigned to 50 mg b.i.d. Subjects who switch treatment at week 12 are handled as if they discontinued at week 12 for the purpose of statistical analysis, whereas subjects in the other groups will maintain their randomized treatment until Week 24.
AST levels determination is available at Quest Diagnostics, Clinical Trials, Quest House, 125-135 Staines Road, Hounslow, Middlesex, TW3 3JB, United Kingdom under Catalogue n#84450. For Study 3, the data are obtained at BARC Europe, 3B,Industrie Park, Zwijnaarde, B-9052 Ghent, Belgium.
AST catalyzes the transamination of aspartate and 2-oxoglutarate, forming L-glutamate and oxalacetate. The oxalacetate is reduced to L-malate by malate dehydrogenase, whilst NADH is converted to NAD+, measured spectrophotometrically. Guidelines for the AST value have been issued by the association for Clinical Biochemistry and Laboratory Medicine, 130-132 Tooley Street LONDON SE1 2TU, united Kingdom, wherein the AST value should be below 34 U/l in Female and below 45 U/L in male. As disclosed in the respective study protocols for Study 1 or 2, at week 12, depending on the outcome of their treatment, the subjects may be continued in their initial treatment course, or reassigned to another treatment group in a randomized blinded fashion until week 24. Therefore, the number of subjects (N) for the period of either 12 weeks, or 24 weeks is provided to reflect this redistribution at week 12.

[1] = continued 100 mg b.i.d., week 1
[2] = continued 100 mg b.i.d., week 2
[3] = continued 100 mg b.i.d., week 4
[4] = continued 100 mg b.i.d., week 8
[5] = continued 100 mg b.i.d., week 12
[6] = continued 100 mg b.i.d., week 16
[7] = continued 100 mg b.i.d., week 20
[8] = continued 100 mg b.i.d., week 24
[9] = from 25 mg b.i.d. to 50 mg b.i.d. at 12 weeks, week 1
[10] = from 25 mg b.i.d. to 50 mg b.i.d. at 12 weeks, week 2
[11] = from 25 mg b.i.d. to 50 mg b.i.d. at 12 weeks, week 4
[12] = from 25 mg b.i.d. to 50 mg b.i.d. at 12 weeks, week 8
[13] = from 25 mg b.i.d. to 50 mg b.i.d. at 12 weeks, week 12
[14] = from 25 mg b.i.d. to 50 mg b.i.d. at 12 weeks, week 16
[15] = from 25 mg b.i.d. to 50 mg b.i.d. at 12 weeks, week 20
[16] = from 25 mg b.i.d. to 50 mg b.i.d. at 12 weeks, week 24
[17] = from 50 mg q.d. to 100 mg q.d. at 12 weeks, week 1
[18] = from 50 mg q.d. to 100 mg q.d. at 12 weeks, week 2
[19] = from 50 mg q.d. to 100 mg q.d. at 12 weeks, week 4
[20] = from 50 mg q.d. to 100 mg q.d. at 12 weeks, week 8
[21] = from 50 mg q.d. to 100 mg q.d. at 12 weeks, week 12
[22] = from 50 mg q.d. to 100 mg q.d. at 12 weeks, week 16
[23] = from 50 mg q.d. to 100 mg q.d. at 12 weeks, week 20
[24] = from 50 mg q.d. to 100 mg q.d. at 12 weeks, week 24
[25] = placebo switched to 50 mg b.i.d. at week 12, week 16
[26] = placebo switched to 50 mg b.i.d. at week 12, week 20
[27] = placebo switched to 50 mg b.i.d. at week 12, week 24
[28] = placebo switched to 100 mg q.d. at week 12, week 16
[29] = placebo switched to 100 mg q.d. at week 12, week 20
[30] = placebo switched to 100 mg q.d. at week 12, week 24

O=C(Nc1nc2cccc(-c3ccc(CN4CCS(=O)(=O)CC4)cc3)n2n1)C1CC1 [Compound 1, cyclopropanecarboxylic acid {5-[4-(1,1-dioxo-thiomorpholin-4-ylmethyl)-phenyl]-[1,2,4]triazolo[1,5-a]pyridin-2-yl}-amide]
Study 1 - AST Mean CFB (continued 50 mg q.d., week 12): 0.6 IU/L | Study 1 - AST Mean percentage CFB (continued 50 mg q.d., week 12): 11.4% | Study 1 - AST Mean CFB (continued 50 mg q.d., week 16): 1.4 IU/L | Study 1 - AST Mean percentage CFB (continued 50 mg q.d., week 16): 15.1% | Study 1 - AST Mean CFB (continued 50 mg q.d., week 20): 2.1 IU/L | Study 1 - AST Mean percentage CFB (continued 50 mg q.d., week 20): 16.8% | Study 1 - AST Mean CFB (continued 50 mg q.d., week 24): 1.0 IU/L | Study 1 - AST Mean percentage CFB (continued 50 mg q.d., week 24): 12.9% | Study 1 - AST Mean CFB [1]: 1.4 IU/L | Study 1 - AST Mean percentage CFB [1]: 10.0% | Study 1 - AST Mean CFB [2]: 2.3 IU/L | Study 1 - AST Mean percentage CFB [2]: 14.1% | Study 1 - AST Mean CFB [3]: 2.6 IU/L | Study 1 - AST Mean percentage CFB [3]: 19.1% | Study 1 - AST Mean CFB [4]: 1.9 IU/L | Study 1 - AST Mean percentage CFB [4]: 17.4% | Study 1 - AST Mean CFB [5]: 2.5 IU/L | Study 1 - AST Mean percentage CFB [5]: 20.1% | Study 1 - AST Mean CFB [6]: 3.5 IU/L | Study 1 - AST Mean percentage CFB [6]: 25.2% | Study 1 - AST Mean CFB [7]: 3.0 IU/L | Study 1 - AST Mean percentage CFB [7]: 23.1% | Study 1 - AST Mean CFB [8]: 5.0 IU/L | Study 1 - AST Mean percentage CFB [8]: 37.6% | Study 1 - AST Mean CFB (continued 100 mg q.d., week 1): 3.0 IU/L | Study 1 - AST Mean percentage CFB (continued 100 mg q.d., week 1): 13.5% | Study 1 - AST Mean CFB (continued 100 mg q.d., week 2): 1.0 IU/L | Study 1 - AST Mean percentage CFB (continued 100 mg q.d., week 2): 9.4% | Study 1 - AST Mean CFB (continued 100 mg q.d., week 4): 1.6 IU/L | Study 1 - AST Mean percentage CFB (continued 100 mg q.d., week 4): 11.2% | Study 1 - AST Mean CFB (continued 100 mg q.d., week 8): 2.8 IU/L | Study 1 - AST Mean percentage CFB (continued 100 mg q.d., week 8): 17.1% | Study 1 - AST Mean CFB (continued 100 mg q.d., week 12): 2.4 IU/L | Study 1 - AST Mean percentage CFB (continued 100 mg q.d., week 12): 15.7% | Study 1 - AST Mean CFB (continued 100 mg q.d., week 16): 1.5 IU/L | Study 1 - AST Mean percentage CFB (continued 100 mg q.d., week 16): 11.5% | Study 1 - AST Mean CFB (continued 100 mg q.d., week 20): 2.6 IU/L | Study 1 - AST Mean percentage CFB (continued 100 mg q.d., week 20): 19.2% | Study 1 - AST Mean CFB (continued 100 mg q.d., week 24): 4.4 IU/L | Study 1 - AST Mean percentage CFB (continued 100 mg q.d., week 24): 28.6% | Study 1 - AST Mean CFB (continued 200 mg q.d., week 1): 3.1 IU/L | Study 1 - AST Mean percentage CFB (continued 200 mg q.d., week 1): 16.1% | Study 1 - AST Mean CFB (continued 200 mg q.d., week 2): 1.9 IU/L | Study 1 - AST Mean percentage CFB (continued 200 mg q.d., week 2): 12.8% | Study 1 - AST Mean CFB (continued 200 mg q.d., week 4): 2.7 IU/L | Study 1 - AST Mean percentage CFB (continued 200 mg q.d., week 4): 18.7% | Study 1 - AST Mean CFB (continued 200 mg q.d., week 8): 4.5 IU/L | Study 1 - AST Mean percentage CFB (continued 200 mg q.d., week 8): 27.2% | Study 1 - AST Mean CFB (continued 200 mg q.d., week 12): 4.8 IU/L | Study 1 - AST Mean percentage CFB (continued 200 mg q.d., week 12): 28.8% | Study 1 - AST Mean CFB (continued 200 mg q.d., week 16): 6.8 IU/L | Study 1 - AST Mean percentage CFB (continued 200 mg q.d., week 16): 36.8% | Study 1 - AST Mean CFB (continued 200 mg q.d., week 20): 4.0 IU/L | Study 1 - AST Mean percentage CFB (continued 200 mg q.d., week 20): 23.3% | Study 1 - AST Mean CFB (continued 200 mg q.d., week 24): 5.2 IU/L | Study 1 - AST Mean percentage CFB (continued 200 mg q.d., week 24): 30.6% | Study 1 - AST Mean CFB [9]: −5.0 IU/L | Study 1 - AST Mean percentage CFB [9]: −12.5% | Study 1 - AST Mean CFB [10]: −2.3 IU/L | Study 1 - AST Mean percentage CFB [10]: −0.7% | Study 1 - AST Mean CFB [11]: −2.9 IU/L | Study 1 - AST Mean percentage CFB [11]: −2.7% | Study 1 - AST Mean CFB [12]: −4.1 IU/L | Study 1 - AST Mean percentage CFB [12]: −7.2% | Study 1 - AST Mean CFB [13]: −1.0 IU/L | Study 1 - AST Mean percentage CFB [13]: 4.5% | Study 1 - AST Mean CFB [14]: −3.3 IU/L | Study 1 - AST Mean percentage CFB [14]: −2.3% | Study 1 - AST Mean CFB [15]: −0.6 IU/L | Study 1 - AST Mean percentage CFB [15]: 8.2% | Study 1 - AST Mean CFB [16]: 0.6 IU/L | Study 1 - AST Mean percentage CFB [16]: 14.2% | Study 1 - AST Mean CFB [17]: 0.3 IU/L | Study 1 - AST Mean percentage CFB [17]: 5.0% | Study 1 - AST Mean CFB [18]: 0.0 IU/L | Study 1 - AST Mean percentage CFB [18]: 3.4% | Study 1 - AST Mean CFB [19]: −0.5 IU/L | Study 1 - AST Mean percentage CFB [19]: 3.6% | Study 1 - AST Mean CFB [20]: −0.4 IU/L | Study 1 - AST Mean percentage CFB [20]: 3.0% | Study 1 - AST Mean CFB [21]: 0.1 IU/L | Study 1 - AST Mean percentage CFB [21]: 4.2% | Study 1 - AST Mean CFB [22]: −0.9 IU/L | Study 1 - AST Mean percentage CFB [22]: −0.2% | Study 1 - AST Mean CFB [23]: 0.4 IU/L | Study 1 - AST Mean percentage CFB [23]: 4.9% | Study 1 - AST Mean CFB [24]: −1.7 IU/L | Study 1 - AST Mean percentage CFB [24]: −2.5% | Study 1 - AST Mean CFB [25]: 2.1 IU/L | Study 1 - AST Mean percentage CFB [25]: 14.9% | Study 1 - AST Mean CFB [26]: −0.1 IU/L | Study 1 - AST Mean percentage CFB [26]: 1.9% | Study 1 - AST Mean CFB [27]: 3.5 IU/L | Study 1 - AST Mean percentage CFB [27]: 19.7% | Study 1 - AST Mean CFB [28]: 1.3 IU/L | Study 1 - AST Mean percentage CFB [28]: 1.0% | Study 1 - AST Mean CFB [29]: 1.2 IU/L | Study 1 - AST Mean percentage CFB [29]: 9.8% | Study 1 - AST Mean CFB [30]: 3.2 IU/L | Study 1 - AST Mean percentage CFB [30]: 23.1%
